Reference: ChEMBL document CHEMBL4673336, “Design, synthesis and stepwise optimization of nitrile-based inhibitors of cathepsins B and L” (Bioorg Med Chem, 2021)

What follows are compounds tested against T1, Cathepsin B (Homo sapiens, UniProt P07858) (assay: Inhibition of human cathepsin B using Z-Phe-Arg-AMC fluorogenic peptide as substrate preincubated for 2 mins followed by substrate addition and measured for 5 mins by fluorescence assay). Conditions: not given.
In the case of C[C@@H](OCc1ccccc1)[C@@H](C#N)NC(=O)[C@H](Cc1cccc(Br)c1)NC(=O)Cc1ccc(-c2ccccc2)cc1, the Ki is reported as over 10000 nM. C[C@@H](OCc1ccccc1)[C@@H](C#N)NC(=O)[C@H](Cc1cccc(Br)c1)NC(=O)c1ccc(-c2cncnc2)cc1 was tested, and the Ki was 12.6 nM. With C[C@@H](OCc1ccccc1)[C@@H](C#N)NC(=O)[C@H](Cc1cccc(Cl)c1)NC(=O)c1ccc(-c2cncnc2)cc1 the Ki was 12.6 nM. C[C@@H](OCc1ccccc1)[C@@H](C#N)NC(=O)[C@H](Cc1cccc(Cl)c1)NC(=O)c1ccc(Br)cc1 gave a Ki of 12.6 nM. Work on C[C@@H](OCc1ccccc1)[C@@H](C#N)NC(=O)[C@H](Cc1cccc(Cl)c1)NC(=O)c1cccc(Br)c1 yielded a Ki of 63.1 nM. C[C@@H](OCc1ccccc1)[C@@H](C#N)NC(=O)[C@H](Cc1cccc(Cl)c1)NS(=O)(=O)c1cccc(-c2ccccc2)c1 showed a Ki of 25.1 nM. With C[C@@H](OCc1ccccc1)[C@@H](C#N)NC(=O)[C@H](Cc1cccc(Cl)c1)NC(=O)c1ccc(-c2ccccc2)cc1 the Ki was 31.6 nM. Compound C[C@@H](OCc1ccccc1)[C@@H](C#N)NC(=O)[C@H](Cc1cccc(Cl)c1)NS(=O)(=O)c1ccc(-c2ccccc2)cc1 has a Ki of 200 nM. For C[C@@H](OCc1ccccc1)[C@@H](C#N)NC(=O)[C@H](Cc1cccc(Cl)c1)NC(=O)c1cccc(-c2ccccc2)c1, the Ki was 126 nM.

The compounds below were run against T2, Cathepsin K (Homo sapiens, UniProt P43235) (assay: Inhibition of recombinant human cathepsin K using Z-Leu-Arg-AMC as substrate measured after 20 mins). Conditions: not given.
T2 sequence (P43235 whole entry): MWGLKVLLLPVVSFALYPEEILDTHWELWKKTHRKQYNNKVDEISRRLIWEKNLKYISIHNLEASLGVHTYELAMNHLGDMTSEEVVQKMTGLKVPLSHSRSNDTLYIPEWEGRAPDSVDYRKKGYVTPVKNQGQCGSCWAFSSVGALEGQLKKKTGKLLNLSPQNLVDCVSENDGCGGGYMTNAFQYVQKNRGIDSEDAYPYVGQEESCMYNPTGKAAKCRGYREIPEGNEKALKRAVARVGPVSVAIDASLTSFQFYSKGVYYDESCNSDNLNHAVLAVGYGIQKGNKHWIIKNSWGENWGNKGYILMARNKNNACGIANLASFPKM
With C[C@@H](OCc1ccccc1)[C@@H](C#N)NC(=O)[C@H](Cc1cccc(Br)c1)NC(=O)Cc1ccc(-c2ccccc2)cc1 the Ki was over 10000 nM. Compound C[C@@H](OCc1ccccc1)[C@@H](C#N)NC(=O)[C@H](Cc1cccc(Br)c1)NC(=O)c1ccc(-c2cncnc2)cc1 has a Ki of 5010 nM. Work on C[C@@H](OCc1ccccc1)[C@@H](C#N)NC(=O)[C@H](Cc1cccc(Cl)c1)NC(=O)c1ccc(-c2cncnc2)cc1 yielded a Ki of 6310 nM. For C[C@@H](OCc1ccccc1)[C@@H](C#N)NC(=O)[C@H](Cc1cccc(Cl)c1)NC(=O)c1ccc(Br)cc1, the Ki was 5010 nM. In the case of C[C@@H](OCc1ccccc1)[C@@H](C#N)NC(=O)[C@H](Cc1cccc(Cl)c1)NC(=O)c1cccc(Br)c1, the Ki is reported as 3980 nM. In the case of C[C@@H](OCc1ccccc1)[C@@H](C#N)NC(=O)[C@H](Cc1cccc(Cl)c1)NS(=O)(=O)c1cccc(-c2ccccc2)c1, the Ki is reported as over 10000 nM. C[C@@H](OCc1ccccc1)[C@@H](C#N)NC(=O)[C@H](Cc1cccc(Cl)c1)NC(=O)c1ccc(-c2ccccc2)cc1 gave a Ki of 1580 nM. C[C@@H](OCc1ccccc1)[C@@H](C#N)NC(=O)[C@H](Cc1cccc(Cl)c1)NS(=O)(=O)c1ccc(-c2ccccc2)cc1 was tested, and the Ki was 10000 nM. Compound C[C@@H](OCc1ccccc1)[C@@H](C#N)NC(=O)[C@H](Cc1cccc(Cl)c1)NC(=O)c1cccc(-c2ccccc2)c1 has a Ki of over 10000 nM.

Each compound was assayed against T3, Procathepsin L (Homo sapiens, UniProt P07711) (assay: Inhibition of human cathepsin L). Conditions: not given.
Target sequence in this assay (P07711 whole entry): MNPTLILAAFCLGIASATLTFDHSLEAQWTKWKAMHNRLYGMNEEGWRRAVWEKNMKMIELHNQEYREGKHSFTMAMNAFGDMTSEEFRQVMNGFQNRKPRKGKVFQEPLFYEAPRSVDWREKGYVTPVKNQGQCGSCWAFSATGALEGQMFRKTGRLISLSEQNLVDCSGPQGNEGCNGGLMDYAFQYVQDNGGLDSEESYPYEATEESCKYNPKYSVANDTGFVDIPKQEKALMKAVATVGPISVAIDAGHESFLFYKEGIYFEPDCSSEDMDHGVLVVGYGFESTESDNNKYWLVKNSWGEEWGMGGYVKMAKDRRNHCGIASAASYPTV
For C[C@@H](OCc1ccccc1)[C@@H](C#N)NC(=O)[C@H](Cc1cccc(Br)c1)NC(=O)Cc1ccc(-c2ccccc2)cc1, the Ki was over 10000 nM. C[C@@H](OCc1ccccc1)[C@@H](C#N)NC(=O)[C@H](Cc1cccc(Br)c1)NC(=O)c1ccc(-c2cncnc2)cc1 showed a Ki of 20 nM. C[C@@H](OCc1ccccc1)[C@@H](C#N)NC(=O)[C@H](Cc1cccc(Cl)c1)NC(=O)c1ccc(-c2cncnc2)cc1 was tested, and the Ki was 15.8 nM. Work on C[C@@H](OCc1ccccc1)[C@@H](C#N)NC(=O)[C@H](Cc1cccc(Cl)c1)NC(=O)c1ccc(Br)cc1 yielded a Ki of 7.94 nM. For C[C@@H](OCc1ccccc1)[C@@H](C#N)NC(=O)[C@H](Cc1cccc(Cl)c1)NC(=O)c1cccc(Br)c1, the Ki was 0.631 nM. C[C@@H](OCc1ccccc1)[C@@H](C#N)NC(=O)[C@H](Cc1cccc(Cl)c1)NS(=O)(=O)c1cccc(-c2ccccc2)c1 was tested, and the Ki was 200 nM. In the case of C[C@@H](OCc1ccccc1)[C@@H](C#N)NC(=O)[C@H](Cc1cccc(Cl)c1)NC(=O)c1ccc(-c2ccccc2)cc1, the Ki is reported as over 10000 nM. Compound C[C@@H](OCc1ccccc1)[C@@H](C#N)NC(=O)[C@H](Cc1cccc(Cl)c1)NS(=O)(=O)c1ccc(-c2ccccc2)cc1 has a Ki of 158 nM. In the case of C[C@@H](OCc1ccccc1)[C@@H](C#N)NC(=O)[C@H](Cc1cccc(Cl)c1)NC(=O)c1cccc(-c2ccccc2)c1, the Ki is reported as 50.1 nM.

These compounds were tested against Cathepsin S (Homo sapiens, UniProt P25774) (assay: Inhibition of human cathepsin S). Conditions: not given.
Cathepsin S, sequence (P25774 whole entry): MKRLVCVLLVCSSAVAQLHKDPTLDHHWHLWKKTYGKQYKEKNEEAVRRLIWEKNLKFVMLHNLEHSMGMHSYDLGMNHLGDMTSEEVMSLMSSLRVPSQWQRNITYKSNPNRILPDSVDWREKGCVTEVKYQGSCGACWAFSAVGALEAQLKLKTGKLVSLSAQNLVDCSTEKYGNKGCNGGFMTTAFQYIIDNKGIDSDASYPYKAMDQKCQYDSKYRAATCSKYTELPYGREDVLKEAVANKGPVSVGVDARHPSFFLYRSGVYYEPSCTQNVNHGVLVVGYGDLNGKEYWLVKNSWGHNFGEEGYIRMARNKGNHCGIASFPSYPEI
In the case of C[C@@H](OCc1ccccc1)[C@@H](C#N)NC(=O)[C@H](Cc1cccc(Br)c1)NC(=O)Cc1ccc(-c2ccccc2)cc1, the Ki is reported as 501 nM. Work on C[C@@H](OCc1ccccc1)[C@@H](C#N)NC(=O)[C@H](Cc1cccc(Br)c1)NC(=O)c1ccc(-c2cncnc2)cc1 yielded a Ki of 31.6 nM. C[C@@H](OCc1ccccc1)[C@@H](C#N)NC(=O)[C@H](Cc1cccc(Cl)c1)NC(=O)c1ccc(-c2cncnc2)cc1 gave a Ki of 63.1 nM. Work on C[C@@H](OCc1ccccc1)[C@@H](C#N)NC(=O)[C@H](Cc1cccc(Cl)c1)NC(=O)c1ccc(Br)cc1 yielded a Ki of 126 nM. C[C@@H](OCc1ccccc1)[C@@H](C#N)NC(=O)[C@H](Cc1cccc(Cl)c1)NC(=O)c1cccc(Br)c1 was tested, and the Ki was 15.8 nM. For C[C@@H](OCc1ccccc1)[C@@H](C#N)NC(=O)[C@H](Cc1cccc(Cl)c1)NS(=O)(=O)c1cccc(-c2ccccc2)c1, the Ki was 631 nM. In the case of C[C@@H](OCc1ccccc1)[C@@H](C#N)NC(=O)[C@H](Cc1cccc(Cl)c1)NC(=O)c1ccc(-c2ccccc2)cc1, the Ki is reported as 79.4 nM. Work on C[C@@H](OCc1ccccc1)[C@@H](C#N)NC(=O)[C@H](Cc1cccc(Cl)c1)NS(=O)(=O)c1ccc(-c2ccccc2)cc1 yielded a Ki of 501 nM. C[C@@H](OCc1ccccc1)[C@@H](C#N)NC(=O)[C@H](Cc1cccc(Cl)c1)NC(=O)c1cccc(-c2ccccc2)c1 gave a Ki of 50.1 nM.

The compounds below were run against T1, Cathepsin B (assay: Inhibition of human cathepsin B at 10 uM using Z-Phe-Arg-AMC fluorogenic peptide as substrate preincubated for 2 mins followed by substrate addition and measured for 5 mins by fluorescence assay relative to control). Conditions: time 7.0 min.
Compound C[C@@H](OCc1ccccc1)[C@@H](C#N)NC(=O)[C@H](Cc1cccc(Br)c1)NC(=O)Cc1ccc(-c2ccccc2)cc1 has an inhibition of over 90%.

Each compound was assayed against T4, Cathepsin K (Homo sapiens) (UniProt P43235) (assay: Inhibition of recombinant human cathepsin K at 10 uM using Z-Leu-Arg-AMC as substrate measured after 20 mins relative to control). Conditions: not given.
T4 sequence (whole entry): T2 sequence (P43235 whole entry)
Compound C[C@@H](OCc1ccccc1)[C@@H](C#N)NC(=O)[C@H](Cc1cccc(Br)c1)NC(=O)Cc1ccc(-c2ccccc2)cc1 has an inhibition of over 90%.

The compounds below were run against T3, Procathepsin L (assay: Inhibition of human cathepsin L at 10 uM relative to control). Conditions: not given.
Target sequence in this assay (P07711 114-333 limits assumed): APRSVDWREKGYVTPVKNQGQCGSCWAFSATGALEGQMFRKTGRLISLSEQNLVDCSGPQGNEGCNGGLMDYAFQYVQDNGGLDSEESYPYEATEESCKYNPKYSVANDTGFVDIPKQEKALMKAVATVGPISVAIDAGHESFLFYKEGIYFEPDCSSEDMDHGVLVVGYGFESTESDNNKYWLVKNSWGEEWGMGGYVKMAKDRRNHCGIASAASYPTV
C[C@@H](OCc1ccccc1)[C@@H](C#N)NC(=O)[C@H](Cc1cccc(Br)c1)NC(=O)Cc1ccc(-c2ccccc2)cc1 was tested, and the inhibition was 59%. C[C@@H](OCc1ccccc1)[C@@H](C#N)NC(=O)[C@H](Cc1cccc(Cl)c1)NC(=O)c1ccc(-c2ccccc2)cc1 showed an inhibition of 61%.

Each compound was assayed against T1, Cathepsin B (assay: Inhibition of human cathepsin B at pH 6 using Z-Phe-Arg-AMC fluorogenic peptide as substrate preincubated for 2 mins followed by substrate addition and measured for 5 mins by fluorescence assay). Conditions: not given.
C[C@@H](OCc1ccccc1)[C@@H](C#N)NC(=O)[C@H](Cc1cccc(Cl)c1)NC(=O)c1ccc(-c2ccccc2)cc1 gave an IC50 of 57.8 nM.

What follows are compounds tested against T1, Cathepsin B (assay: Inhibition of human cathepsin B at pH 4.5 using Z-Phe-Arg-AMC fluorogenic peptide as substrate preincubated for 2 mins followed by substrate addition and measured for 5 mins by fluorescence assay). Conditions: not given.
For C[C@@H](OCc1ccccc1)[C@@H](C#N)NC(=O)[C@H](Cc1cccc(Cl)c1)NC(=O)c1ccc(-c2ccccc2)cc1, the IC50 was 42.3 nM.

Species: Homo sapiens
Assay: Selectivity index, ratio of pKi for human cathepsin S to pKi for human cathepsin B using Z-Phe-Arg-AMC fluorogenic peptide as substrate preincubated for 2 mins followed by substrate addition and measured for 5 mins by fluorescence assay
Conditions: time 7.0 min
Work on C[C@@H](OCc1ccccc1)[C@@H](C#N)NC(=O)[C@H](Cc1cccc(Br)c1)NC(=O)Cc1ccc(-c2ccccc2)cc1 yielded a Ratio pKi of over 50.

Each compound was assayed against Cathepsin (S and K) (Homo sapiens) (UniProt P25774+P43235) (assay: Selectivity index, ratio of pKi for human cathepsin S to pKi for recombinant human cathepsin K using Z-Leu-Arg-AMC as substrate measured after 20 mins). Conditions: not given.
Cathepsin (S and K) (Homo sapiens), sequence (P25774 whole entry, looked up, one chain of several): as the sequence (P25774 whole entry) above
Assay type: protein assay
C[C@@H](OCc1ccccc1)[C@@H](C#N)NC(=O)[C@H](Cc1cccc(Br)c1)NC(=O)Cc1ccc(-c2ccccc2)cc1 was tested, and the Ratio pKi was over 50.

Species: Homo sapiens
Assay: Selectivity index, ratio of pKi for human cathepsin S to pKi for human cathepsin L
Conditions: not given
C[C@@H](OCc1ccccc1)[C@@H](C#N)NC(=O)[C@H](Cc1cccc(Br)c1)NC(=O)Cc1ccc(-c2ccccc2)cc1 gave a Ratio pKi of over 50.
